Measurements from patent US9987379B2, “Molecular probes for imaging of myelin” (Case Western Reserve University, priority 2008, dated 2018).
Entries after “also recorded” stand apart in the source; their conditions may differ.

What was measured:
[1] = Log P of CMC; format: physicochemical; details: method not stated
[2] = system: myelin in corpus callosum; assay: In vitro CMC tissue staining of mouse brain sections (wild-type and Plp-Akt-DD); format: binding
Description: Free floating sections were incubated in 1% H2O2/Triton-100 for 10 min, then incubated in a solution of test compounds (100 μM) in 1% DMSO/PBS for 30 min at room temperature. The sections were washed three times with PBS before cover-slipping with fluorescence mounting medium (Vectashield, Vector laboratories). […] The fluorescent nature of these coumarin derivatives allows for staining of mouse brain tissue sections in a way similar to other conventional myelin stains. The tissue staining represents a direct approach to evaluate the binding specificity of the test compounds for myelin sheaths. The myelinated corpus callosum region was then examined by fluorescent microscopy. […] For correlation, the MBP immunostaining was also conducted in adjacent sections (FIG. 10E).

[3] = system: myelin sheaths of the corpus callosum and cerebellum; assay: In situ CMC staining of myelin after i.v. injection; format: in vivo, mouse; details: 25 mg/kg tail vein, 1 hr post injection, wild-type and Plp-Akt-DD mice
Description: In this experiment, 25 mg/kg of CMC was administered through i.v. injection in the tail vein of 2-month old wild-type mice and Plp-Akt-DD mice Animals were sacrificed at 1 hr after injection through heart puncture. The brains were removed and fixed in 4% PFA. The brains were then sectioned and fluorescent images were directly acquired on a Zeiss Axiovert 200M inverted microscope (2.5× objective) with a AxioCam digital camera (Carl Zeiss Microlmagibg, Inc, Thornwood, N.Y.).
Following our in vitro studies, we investigated the ability of CMC to monitor myelin contents ex vivo in the mouse brain. A dose of 0.5 mg CMC (25 mg/kg) was injected via the tail vein into wild-type mice and Plp-Akt-DD mice. One hr postinjection, mice were perfused and brains were removed and sectioned as described above. CMC staining of myelin was then directly examined under fluorescent microscopy.

[4] = Stability of [125I]9 monitored by HPLC; format: physicochemical
Source text: The radiochemical identity of [^125I]9 was verified by co-injection with cold standard Compound 9. Following HPLC purification, [^125I]9 was obtained in 70% radiochemical yield with a radiochemical purity of >98% and a specific activity of 80 TBq/mmol As monitored by HPLC, [^125I]9 was found stable to be kept at room temperature for up to 8 hrs and in the refrigerator for up to 2 months.

[5] = Octanol-water partition coefficient measurement; format: physicochemical
Source text: The partition coefficient (PC) is an important parameter of brain permeability. PC values ranging 1.0˜3.5 often show good initial brain entry following i.v. injection (Wu, C.; Pike, V. W.; Wang, Y. Amyloid imaging: from benchtop to bedside. Curr Top Dev Biol 2005, 70, 171-213; Levin, V. A. Relationship of octanol/water partition coefficient and molecular weight to rat brain capillary permeability. J Med Chem 1980, 23, 682-684; Dishino, D. D.; Welch, M. J.; Kilbourn, M. R.; Raichle, M. E. Relationship between lipophilicity and brain extraction of C-11-labeled radiopharmaceuticals. J Nucl Med 1983, 24, 1030-1038. For this reason, we radioiodinated Compound 9 and quantitatively determined the lipophilicity of [^125I]9. Based on the conventional octanol-water partition measurement, the log Poct of [^125I]9 was determined as 2.5±0.1, which falls in the range for optimal brain entry.
Partition coefficients (PC) were measured by mixing the radioligands with 3 g (3.65 mL) 1-octanol and 3 g (3.0 mL) buffer (pH 7.40, 0.1 M phosphate) in a test tube. The test tube was vortexed for 3 mM at room temperature and then centrifuged (3500 rpm, 5 mM) 1 ml of samples from the 1-octanol and buffer layers were assayed for radioactivity content in a well γcounter. The partition coefficient was determined by calculating the ratio of cpm/g of 1-octanol to that of the buffer. […]

[6] = Brain uptake / permeability across the blood-brain barrier in mice; format: in vivo, mouse
Description: Encouraged by the aforementioned studies, we further evaluated the permeability of [^125I]9 across the blood brain barrier. Following bolus tail vein injection of [^125I]9 (0.2 ml, 0.185 MBq), the radioactivity concentration of [^125I]9 in the brain was determined at 2, 30, and 60 min post injection. […] The initial brain entry was 2.29±0.66% ID/g at 2 min post injection. At 30 min post injection, the brain radioactivity concentration reached its peak level (2.65±0.27% ID/g). […] Retention of [^125I]9 at later time points was likely due to binding to myelin membranes as indicated by aforementioned in vitro and in situ staining studies.
While under anesthesia, 0.1 mL of a saline solution (consisting of saline (2 mL, 9 mg/mL), propylene glycol (2 mL), ethanol (0.7 mL) and HCl (0.3 mL, […]))^25 containing 5 μCi of radioactive tracer, was injected into the tail veins of mice (Swiss-Webster, 2 month old, 2 mice per group). The mice were sacrificed by heart puncture at 2 mM, 30 mM, 60 min and 120 mM post injection under anesthesia. Brains were rapidly removed and weighed, and the brain uptake was expressed as percentage of injection dose per gram organ (% ID/g), which was calculated by a ratio of per gram tissue counts to counts of 1% of the initial dose (100 times diluted aliquots of the injected radioligand) measured at the same time.

[7] = system: myelinated corpus callosum and cerebellum; assay: In vitro autoradiography of mouse brain sections; format: binding; details: sagittal mouse brain sections, 1 hr incubation
Description: To further evaluate the binding specificity of [^125I]9 to myelin sheaths in the brain, in vitro autoradiography was carried out in mice.
Mouse brain sections were incubated in [^125I]9 (20% Ethanol, 4,380,000 cpm/16 ml) for 1 hr. The slides were quickly washed with PBS buffer (10 mM, pH 7.0) 3 times, saturated Li2CO3 in 40% ethanol (2×3 mM), 40% ethanol (2 mM) and H2O (30 sec). After drying by air, the slides were put in a cassette and exposed to film for 44 hrs to obtain images.

SMILES	logP [1]	staining contrast among the coumarin derivatives screened ([2]; 100 uM, mouse brain sections)	in vitro staining of myelin ([2]; 100 uM, wild-type mouse brain sections)	fluorescent intensity in Plp-Akt-DD mouse brain relative to wild-type mouse brain ([2]; corpus callosum, hypermyelinated Plp-Akt-DD vs wild-type) [fold]	brain entry and in situ labeling of myelin [3]	time found stable in the refrigerator ([4]; in the refrigerator)	time found stable at room temperature ([4]; room temperature)	log Poct [5]	brain radioactivity concentration ([6]; 2 min post tail vein injection) [% ID/g]	brain radioactivity concentration ([6]; 30 min post tail vein injection) [% ID/g]	brain radioactivity concentration ([6]; 60 min post tail vein injection) [% ID/g]	brain radioactivity concentration ([6]; 120 min post tail vein injection) [% ID/g]	autoradiographic labeling of brain sections [7]
Nc1ccc(-c2cc3ccccc3oc2=O)cc1 [CMC, 3-(4-aminophenyl)-2H-chromen-2-one]	2.68	highest contrast	selectively stained intact myelin tracks	1.27	highly permeable across the BBB and selectively localizes in myelinated regions; also recorded: entered the brain and selectively labeled myelin sheaths of the corpus callosum and cerebellum	–	–	–	–	–	–	–	–
Nc1ccc(C=Cc2ccc([125I])cc2)cc1 [[^125I]9, 4-[2-(4-[^125I]Iodo-phenyl)-vinyl]-phenylamine]	–	–	–	–	–	up to 2 months	up to 8 hrs	2.5±0.1	2.29±0.66	2.65±0.27	2.05 ± 0.13	1.12±0.23	distinct labeling of myelinated regions
